Reference: patent US20200172483A1, “HETEROCYCLIC SMALL MOLECULE MODULATORS OF HUMAN STING” (Curadev Pharma Limited, priority 2017, published 2020)

How the values were obtained:
[1] = biological target: T1, WT/R232 STING protein (Homo sapiens, UniProt Q86WV6, H232R); experiment: Luciferase reporter assay in HEK293T-hSTING-Luciferase cells (R232); type: cell-based; conditions: 20 hr stimulation, EC50 range
T1 construct: host or cells: HEK293T
Summary of the method: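 Readout is fold-induction over baseline of secreted luciferase, measured by luminescence after 20 hr compound stimulation. Cells: clonally selected HEK293T stably carrying hSTING (R232) and a luciferase reporter under five tandem ISREs fused to an ISG54 minimal promoter.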

[2] = biological target: T2, hSTING (H232) (Homo sapiens, UniProt Q86WV6); experiment: Luciferase reporter assay in HEK293T-hSTING-Luciferase cells (H232/REF polymorph); type: cell-based; conditions: EC50 range
T2 construct: host or cells: HEK293T
T2 sequence (Q86WV6 whole entry): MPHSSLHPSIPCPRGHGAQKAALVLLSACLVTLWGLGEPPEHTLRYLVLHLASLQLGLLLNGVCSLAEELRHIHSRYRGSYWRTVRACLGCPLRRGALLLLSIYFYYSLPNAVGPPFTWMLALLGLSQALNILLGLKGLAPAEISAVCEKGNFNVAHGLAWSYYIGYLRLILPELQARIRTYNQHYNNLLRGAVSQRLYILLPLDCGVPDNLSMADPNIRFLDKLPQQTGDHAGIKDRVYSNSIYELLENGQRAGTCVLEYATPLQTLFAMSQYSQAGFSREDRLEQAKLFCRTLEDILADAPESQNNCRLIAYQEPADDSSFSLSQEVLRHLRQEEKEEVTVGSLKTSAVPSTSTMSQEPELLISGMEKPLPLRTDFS
Source text: (§1) • a) Stable STING expressing cells—Stable HEK293T STING-expressing cell lines were generated using plasmids purchased from Invivogen, CA, USA, that contain STING cDNA cloned into the pUNO-1 vector under hEF1-HTLV promoter and containing the Blasticidin selection cassette. The plasmids hSTING (R232), hSTING (H232), hSTING (HAQ) were directly procured from Invivogen while hSTING (AQ) and hSTING (Q) were derived from hSTING (HAQ) and hSTING (R232) plasmids respectively by using a PCR based site directed mutagenesis method. These vectors were individually transfected into HEK293T cells using Lipofectamine (Invitrogen) and transfected cells were selected under Blasticidin selection. These transfected cells were further subjected to clonal selection using the limiting dilution method to obtain clonally pure populations of HEK cells transfected with each of the above mentioned human STING variants. Only those clones were selected in which ligand independent activation of STING was minimal. • b) Stable Luciferase reporter gene expressing cells—Stable HEK293T Luciferase reporter gene expressing cell lines were generated using pCDNA4 plasmids under an IRF-inducible promoter. This promoter is comprised of five tandem interferon-stimulated response elements (ISRE) fused to an ISG54 minimal promoter. This vector was transfected into HEK293T cells using Lipofectamine (Invitrogen) and transfected cells were selected under Zeocin selection. These transfected cells were further subjected to clonal selection using the limiting dilution method to obtain clonally pure populations of HEK cells transfected the Luciferase reporter construct. Only those clones were selected in which ligand independent induction of luciferase was minimal.
(§2) 5×10^5 clonally selected HEK293T-hSTING-Luciferase cells were seeded in 384-well plates in growth medium and stimulated with novel compounds. After 20 hr of stimulation supernatant were removed and secretary reporter gene activity were measured using the Quanti-Luc detection system (Invivogen) on a Spectramax i3X luminometer.
(§3) The 5 major polymorphisms of human STING are shown in FIG. 1, with their prevalence in human populations indicated.

[3] = biological target: T3, hSTING (HAQ) (Homo sapiens, UniProt Q86WV6, G230A/H232R/R293Q/R71H); experiment: Luciferase reporter assay in HEK293T-hSTING-Luciferase cells (HAQ polymorph); type: cell-based; conditions: EC50 range
T3 construct: host or cells: HEK293T
T3 sequence (Q86WV6 whole entry R71H/G230A/H232R/R293Q): as the sequence (Q86WV6 whole entry) above, with R71H, G230A, H232R, R293Q counted along it
Source text: as §1, §2, §3

[4] = tested on: IRF pathway; experiment: Reporter gene expression assay for IRF axis in THP1-Dual cells (secreted Lucia luciferase); type: cell-based, human; conditions: Homo sapiens, THP1-Dual, 20 h, 20 hr stimulation, QUANTI-Luc, EC50 range, read-out: THP-IRF activity
Procedure: (§4) THP1-Dual™ cells (Invivogen) were derived from the human THP-1 monocyte cell line by stable integration of two inducible reporter constructs. As a result, THP1-Dual™ cells allow the simultaneous study of the NF-κB pathway, by monitoring the activity of secreted SEAP, and the IRF pathway, by assessing the activity of a secreted luciferase (Lucia). […] THP1-Dual™ cells were seeded in 384-well plates in growth medium and stimulated with novel compounds. After 20 hr of stimulation supernatant were removed and reporter proteins were readily measured in the cell culture supernatant using QUANTI-Blue™ (Invivogen), a SEAP detection reagent, and QUANTI-Luc™ (Invivogen), a luciferase detection reagent on a Spectramax i3X luminometer. EC50 value ranges for exemplary compounds tested in the above assay are given.

[5] = tested on: NF-κB pathway; experiment: Reporter gene expression assay for NFκB axis in THP1-Dual cells (secreted SEAP); type: cell-based, human; conditions: Homo sapiens, THP1-Dual, 20 h, 20 hr stimulation, QUANTI-Blue SEAP, EC50 range, read-out: THP-NFKB activity
Procedure: as §4

T1 sequence (Q86WV6 whole entry H232R): as the sequence (Q86WV6 whole entry) above, with H232R counted along it

Row | SMILES | EC50 [1] | EC50 [2] | EC50 [3] | EC50 [4] | EC50 [5]
1 | CC1(C)C(=O)N(Cc2cc(F)cc(F)c2)c2cc(C(=O)NCc3ccc(N=[N+]=[N-])cc3)ccc21 [Example 48, N-(4-azidobenzyl)-1-(3,5-difluorobenzyl)-3,3-dimethyl-2-oxoindoline-6-carboxamide] | 1 to 10 µM | 1 to 10 µM | 1 to 10 µM | > 10 µM | > 10 µM
2 | Cc1ccc(CNC(=O)c2ccc3c(c2)N(Cc2c(F)cccc2F)C(=O)C3(C)C)o1 [Example 50, 1-(2,6-difluorobenzyl)-3,3-dimethyl-N-((5-methylfuran-2-yl)methyl)-2-oxoindoline-6-carboxamide] | 1 to 10 µM | 1 to 10 µM | 1 to 10 µM | > 10 µM | > 10 µM
3 | Cc1cc(CN2C(=O)C(C)(C)c3ccc(C(=O)NCc4c(F)cc(F)cc4F)cc32)ccn1 [Example 54, 3,3-dimethyl-1-((2-methylpyridin-4-yl)methyl)-2-oxo-N-(2,4,6-trifluorobenzyl)indoline-6-carboxamide] | 1 to 10 µM | 1 to 10 µM | 1 to 10 µM | > 10 µM | > 10 µM
4 | CC1(C)C(=O)N(Cc2ccc(N=[N+]=[N-])cc2)c2cc(C(=O)NCc3c(F)cc(F)cc3F)ccc21 [Example 56, 1-(4-azidobenzyl)-3,3-dimethyl-2-oxo-N-(2,4,6-trifluorobenzyl)indoline-6-carboxamide] | ≤ 1 µM | 1 to 10 µM | 1 to 10 µM | > 10 µM | > 10 µM
5 | CC1(C)C(=O)N(Cc2cccc(N=[N+]=[N-])c2)c2cc(C(=O)NCc3c(F)cc(F)cc3F)ccc21 [Example 57, 1-(3-azidobenzyl)-3,3-dimethyl-2-oxo-N-(2,4,6-triflurobenzyl)indoline-6-carboxamide] | 1 to 10 µM | 1 to 10 µM | 1 to 10 µM | > 10 µM | > 10 µM
6 | Cc1ccc(CNC(=O)c2ccc3c(c2)N(Cc2ccc(F)cc2)C(=O)C3(C)C)o1 [Example 60, 1-(4-fluorobenzyl)-3,3-dimethyl-N-((5-methylfuran-2-yl)methyl)-2-oxoindoline-6-carboxamide] | 1 to 10 µM | > 10 µM | 1 to 10 µM | > 10 µM | > 10 µM
7 | Cc1ccc(CNC(=O)c2ccc3c(c2)N(Cc2cccc(F)c2F)C(=O)C3(C)C)o1 [Example 61, 1-(2,3-difluorobenzyl)-3,3-dimethyl-N-((5-methylfuran-2-yl)methyl)-2-oxoindoline-6-carboxamide] | 1 to 10 µM | 1 to 10 µM | 1 to 10 µM | > 10 µM | > 10 µM
8 | Cc1ccc(CNC(=O)c2ccc3c(c2)N(Cc2c(C)cccc2F)C(=O)C3(C)C)o1 [Example 63, 1-(2-fluoro-6-methylbenzyl)-3,3-dimethyl-N-((5-methylfuran-2-yl)methyl)-2-oxoindoline-6-carboxamide] | ≤ 1 µM | 1 to 10 µM | 1 to 10 µM | > 10 µM | > 10 µM
9 | Cc1cc(CN2C(=O)C(C)(C)c3ccc(C(=O)NCc4c(F)cc(F)cc4F)cc32)no1 [Example 70, 3,3-dimethyl-1-((5-methylisoxazol-3-yl)methyl)-2-oxo-N-(2,4,6-trifluorobenzyl)indoline-6-carboxamide] | 1 to 10 µM | 1 to 10 µM | 1 to 10 µM | > 10 µM | > 10 µM
10 | CC1(C)C(=O)N(Cc2c(F)cccc2Cl)c2cc(C(=O)NCc3ccc4occc4c3)ccc21 [Example 71, N-(benzofuran-5-ylmethyl)-1-(2-chloro-6-fluorobenzyl)-3,3-dimethyl-2-oxoindoline-6-carboxamide] | 1 to 10 µM | 1 to 10 µM | 1 to 10 µM | > 10 µM | 1 to 10 µM
